What was measured:
[1] = tested on: carrageenan rat paw edema; assay: Carrageenan Rat Paw Edema Test; format: in vivo, Male Sprague-Dawley rats; settings: for ED35: 4 h, oral, by regression analysis, read-out: ID35; for inhibition in vivo at 100 mg/kg: po, 100 mg/kg P.O., paw volume 4 h after carrageenan, vs control group, read-out: Percent Inhibiton at 100 mg/kg dose P.O
Experimental: Carrageenan Rat Paw Edema Test
Male Sprague-Dawley rats (Charles River Laboratories) are weighed and food fasted overnight. The animals are then divided into four to six groups of six animals each according to body weights (average about 145 g) so that each group has about the same average body weight (within 10 g).
The following morning animals are dosed with the test compound and then placed in individual cages. For oral dosing, the drug is suspended in 0.5% methyl cellulose with 2% Tween 80, and delivered via stomach tube in a 5 ml volume.
Paw volumes (0 time) are determined on both hind paws with a mercury displacement device equipped with a transducer and digitizer. One hour after dosing the test compound, the animals are placed in a plastic restrainer and 50 ul of a 1% (w/w) carrageenan solution in 0.9% saline is injected into the ventral surface of the left rear paw. Four hours after the carrageenan injection, the paw volumes are again determined.
The results are expressed as percent inhibition of the mean paw volume of the test group relative to the control group. Statistical differences are determined by one way analysis of variance. ID35 values are determined by regression analysis.

[2] = tested on: oxazolone-induced inflamed mouse ear; assay: Oxazolone-Induced Inflamed Mouse Ear Test (Ox-IMET); format: in vivo, Adult male Cox ICR mice; settings: topical, 25 ul of 10% in ethanol, 24 h after challenge, vs control group, read-out: Percent Inhibition
Experimental: Oxazolone-Induced Inflamed Mouse Ear Test ("Ox-IMET")
Adult male Cox ICR mice, 25-35 g, are sensitized by applying 3% oxazolone in olive oil to the clipped abdomen of each animal using a cotton swab. One week later, the mice are challenged on the inner surface of the left ear with 3% oxazolone in aceotone. At the same time 25 ul of the test compound (10% in ethanol) is applied to the outer surface of the same ear. Twenty four hours after the challenge, the animals are sacrificed by cervical dislocation and both ears are removed. A 5 mm punch biopsy is removed from both ears and is weighed to the nearest 0.1 mg on a Cahn electrobalance. Ten animals are used per group. The study usually consists of 4 to 6 groups, of which one is a control group which is challenged on the left ear, but is not treated with a test compound. The results are expressed as percent inhibition of the swelling response compared to the control group. Statistical tests for significance between groups are made using a one way analysis of variance of the ear weight differences.

[3] = tested on: arachidonic acid-induced inflamed mouse ear; assay: Arachidonic Acid-Induced Inflamed Mouse Ear Test; format: in vivo, Adult male Cox ICR mice; settings: for inhibition in vivo at 50 µg/ear: Mus musculus, 50 ug/ear topical, 3 hours, read-out: Percent Inhibition at 50 ug/ear topical dose; for ID50: topical, by regression analysis
Experimental: Arachidonic Acid-Induced Inflamed Mouse Ear Test
All drugs are dissolved with arachidonic acid in the vehicle. At the end of 3 hours, animals are sacrificed by cervical dislocation and both ears are removed. A 5 mm punch biopsy is removed from both ears and is weighed to the nearest 0.1 mg on a Cahn electrobalance. Ten animals are used per group. The study usually consists of 4 to 6 groups, of which one is a control group which is treated on the left ear with only arachidonic acid in the vehicle. The results are expressed as percent inhibition of the swelling response compared to the control group. Statistical tests for significance between groups are made using a one way analysis of variance of the ear weight differences. ID50 values are determined by regression analysis.

| Compound | ED35 [1] | inhibition in vivo at 100 mg/kg [1] | inhibition in vivo at 10 % [2] | inhibition in vivo at 50 µg/ear [3] | ID50 [3] |
| --- | --- | --- | --- | --- | --- |
| C#CCCCCCC(=O)c1cc(C(C)(C)C)c(O)c(C(C)(C)C)c1 [Compound 26, 4-(7'-octynoyl)-2,6-di-t-butylphenol] | 110 mg/kg | 43.3% | – | – | – |
| COC(Cc1cc(C(C)(C)C)c(O)c(C(C)(C)C)c1)OC [Compound 33, 4-(2',2'-dimethoxyethyl)-2,6-di-t-butylphenol] | – | – | 54.1% | – | – |
| CC(C)(C)c1cc(C(=O)CC2OCCO2)cc(C(C)(C)C)c1O [Compound 30, 4-(2'-(1",3"-dioxolane)acetyl)-2,6-di-t-butylphenol] | 35.2 mg/kg | 72.8% | 33.4% | 69.1% | 29.5 ug/ear |
| C#CCCCC(=C)c1cc(C(C)(C)C)c(O)c(C(C)(C)C)c1 [Compound 16, 4-(1'-methylidene-5'-hexynyl)-2,6-di-t-butylphenol] | – | 25.7% | 30.3% | – | – |
| C#CC(=O)c1cc(C(C)(C)C)c(O)c(C(C)(C)C)c1 [Compound 1, 4-propynoyl-2,6-di-t-butylphenol] | 40 mg/kg | 65% | – | – | – |
| C#CC[C@@H](C)CC(=O)c1cc(C(C)(C)C)c(O)c(C(C)(C)C)c1 [Compound 18, 4-((R)-(+)-3'-methyl-5'-hexynoyl)-2,6-di-t-butylphenol] | 2.5 mg/kg | 72% | 54.5% | – | – |
| C#CCCC(=O)CCc1cc(C(C)(C)C)c(O)c(C(C)(C)C)c1 [Compound 24, 4-(6'-heptyn-3'-one)-2,6-di-t-butylphenol] | – | – | 38.2% | – | – |
| C#CCC(=O)c1cc(C(C)(C)C)c(O)c(C(C)(C)C)c1 [Compound 3, 4-(3'-butynoyl)-2,6-di-t-butylphenol] | 9.9 mg/kg | 66.9% | – | 61.6% | 22.7 ug/ear |
| C#CC[C@H](C)CC(=O)c1cc(C(C)(C)C)c(O)c(C(C)(C)C)c1 [Compound 17, 4-((S)-(-)-3'-methyl-5'-hexynoyl)-2,6-di-t-butylphenol] | 4.4 mg/kg | 75.5% | 59.5% | – | – |
| C=CCCCC(=O)c1cc(C(C)(C)C)c(O)c(C(C)(C)C)c1 [Compound 12, 4-(5'-hexenoyl)-2,6-di-t-butylphenol] | 11.4 mg/kg | 59.9% | 29.7% | – | – |
| C#CC(C)(C)CC(=O)c1cc(C(C)(C)C)c(O)c(C(C)(C)C)c1 [Compound 9, 4-(3',3'-dimethyl-4'-pentynoyl)-2,6-di-t-butylphenol] | – | 41.7% | 23.2% | – | – |
| C#CCC(CC#C)C(=O)CCc1cc(C(C)(C)C)c(O)c(C(C)(C)C)c1 [Compound 25, 4-(4'-(2"-propynyl)-6'-heptyn-3'-one)-2,6-di-t-butylphenol] | – | – | 40.4% | – | – |
| C#CCCCC(=O)c1cc([Si](C)(C)C)c(O)c([Si](C)(C)C)c1 [Compound 20, 4-(5'-hexynoyl)-2,6-bis-trimethylsilylphenol] | 34.2 mg/kg | 73.1% | – | – | – |
| C#CC(=O)/C=C/c1cc(C(C)(C)C)c(O)c(C(C)(C)C)c1 [Compound 27, 4-((E)-1'-penten-4'-yn-3'-one)-2,6-di-t-butylphenol] | 28.3 mg/kg | 62.8% | – | 34.8% | 52.4 ug/ear |
| CC(C)(C)c1cc(C(=O)CC2OCCS2)cc(C(C)(C)C)c1O (stereo not shown) [Compound 32, 4-(2'-(1",3"-oxathiolane)acetyl)-2,6-di-t-butylphenol] | – | 50.8% | 44.5% | – | – |
| COC(CC(=O)CCc1cc(C(C)(C)C)c(O)c(C(C)(C)C)c1)OC [Compound 34, 4-(5',5'-dimethoxy-3'-pentanone)-2,6-di-t-butylphenol] | – | 66.1% | – | – | – |
| C#CCCC(=O)c1cc(C(C)(C)C)c(O)c(C(C)(C)C)c1 [Compound 5, 4-(4'-pentynoyl)-2,6-di-t-butylphenol] | 8.1 mg/kg | 61.3% | 25.3% | – | – |

| Compound | ED35 [1] | inhibition in vivo at 100 mg/kg [1] | inhibition in vivo at 10 % [2] | inhibition in vivo at 50 µg/ear [3] | ID50 [3] |
| --- | --- | --- | --- | --- | --- |
| C=C=CC(=O)c1cc(C(C)(C)C)c(O)c(C(C)(C)C)c1 [Compound 4, 4-butadienoyl-2,6-di-t-butylphenol] | – | 64.9% | – | 79.6% | 6.6 ug/ear |
| C=CCCC(=O)c1cc(C(C)(C)C)c(O)c(C(C)(C)C)c1 [Compound 6, 4-(4'-pentenoyl)-2,6-di-t-butylphenol] | 3.3 mg/kg | 71.2% | 46% | – | – |
| C#CC(O)c1cc(C(C)(C)C)c(O)c(C(C)(C)C)c1 (stereo not shown) [Compound 2, 4-(1'-hydroxy-2'-propynyl)-2,6-di-t-butylphenol] | 46.8 mg/kg | 75.6% | 27.3% | – | – |
| C#CCCCC(O)c1cc(C(C)(C)C)c(O)c(C(C)(C)C)c1 (stereo not shown) [Compound 14, 4-(1'-hydroxy-5'-hexynyl)-2,6-di-t-butylphenol] | 30 mg/kg | 54.4% | – | – | – |
| C#CCCCC(=O)c1cc([Si](C)(C)C)cc([Si](C)(C)C)c1 [Compound 21, 1-(5'-hexynoyl)-3,5-bis-trimethylsilylbenzene] | ~90 mg/kg | 41.7% | – | – | – |
| C#CC(=O)CCc1cc(C(C)(C)C)c(O)c(C(C)(C)C)c1 [Compound 10, 4-(4'-pentyn-3'-one)-2,6-di-t-butylphenol] | 24.5 mg/kg | 92.2% | – | 64.9% | – |
| C#CCCCCC(=O)c1cc(C(C)(C)C)c(O)c(C(C)(C)C)c1 [Compound 23, 4-(6'-heptynoyl)-2,6-di-t-butylphenol] | 17.4 mg/kg | 67.9% | – | – | – |
| C#CCC(C)(C)CC(=O)c1cc(C(C)(C)C)c(O)c(C(C)(C)C)c1 [Compound 35, 4-(3',3'-dimethyl-5'-hexynoyl)-2,6-di-t-butylphenol] | – | 61.1% | – | – | – |
| COC(CC(=O)c1cc(C(C)(C)C)c(O)c(C(C)(C)C)c1)OC [Compound 29, 4-(3',3'-dimethoxypropionyl)-2,6-di-t-butylphenol] | 28.2 mg/kg | 70.7% | – | – | – |
| C#CCCCC(=O)c1cc(C(C)(C)C)cc(C(C)(C)C)c1 [Compound 19, 1-(5'-hexynoyl)-3,5-di-t-butylbenzene] | 45.3 mg/kg | 71.7% | – | – | – |
| CCOC(CC(=O)c1cc(C(C)(C)C)c(O)c(C(C)(C)C)c1)OCC [Compound 31, 4-(3',3'-diethoxypropionyl)-2,6-di-t-butylphenol] | – | – | – | 82.8% | 15.3 ug/ear |
| C#CCCCCc1cc(C(C)(C)C)c(O)c(C(C)(C)C)c1 [Compound 15, 4-(5'-hexynyl)-2,6-di-t-butylphenol] | 55.2 mg/kg | 75.7% | 39.6% | – | – |
| C=CCCC(=O)/C=C/c1cc(C(C)(C)C)c(O)c(C(C)(C)C)c1 [Compound 28, 4-((E)-1',6'-heptadiene-3'-one)-2,6-di-t-butylphenol] | – | – | 37.4% | – | – |
| C#CCCC(C)C(=O)c1cc(C(C)(C)C)c(O)c(C(C)(C)C)c1 (stereo not shown) [Compound 13, 4-(2'-methyl-5'-hexynoyl)-2,6-di-t-butylphenol] | 17.9 mg/kg | 69.8% | – | 74.4% | 17.5 ug/ear |
| C#CCCCC(=O)c1cc(C(F)(F)F)cc(C(F)(F)F)c1 [Compound 22, 1-(5'-hexynoyl)-3,5-bis(trifluoromethyl)benzene] | – | 47% | – | – | – |
| C#CCC(C)(C)C(=O)c1cc(C(C)(C)C)c(O)c(C(C)(C)C)c1 [Compound 8, 4-(2', 2'-dimethyl-4'-pentynoyl)-2,6-di-t-butylphenol] | – | 50.4% | 38.3% | – | – |
| C#CCC(C(=O)c1cc(C(C)(C)C)c(O)c(C(C)(C)C)c1)C(OC)OC (stereo not shown) [Compound 7, 4-(2'-dimethoxymethyl-4'-pentynoyl)-2,6-di-t-butylphenol] | – | 53.6% | 40.9% | – | – |
